Measured values taken from US12180146B2, “Antihypertensive polyol compound and derivative thereof” (TAO PHARMACEUTICAL (SUZHOU) CO., LTD, priority 2020, dated 2024).

How the values were obtained:
[1] = system: monocrotaline-induced pulmonary hypertension model rats (MCT-PAH); test: Monocrotaline-induced pulmonary hypertension model rats, oral (gavage) treatment for 21 days; format: in vivo, SD rats; conditions: 100 mg/kg
Source text: Monocrotaline (MCT) was subcutaneously injected to establish an animal model of pulmonary hypertension in SD rats. At the same time, compound 1 was given by gavage for treatment. The pulmonary artery hemodynamics and right heart hypertrophy index RVHI of the rates were detected to determine whether the oral administration of compound 1 has effects of improving Monocrotaline induces pulmonary hypertension.
(§1) SD rats (purchased from Shanghai Xipuer-Bikai Experimental Animal Co., Ltd.), male, weighing 180-200 g, were bred in an artificially controlled animal room with each 12 hours of light and darkness at a temperature of 20-25° C. and relative humidity of 50-60%, and allowed ad libitum to food and water. The rats were randomly divided into groups according to the experimental requirements, and kept separately in cages, with 3 to 4 rats per cage. All relevant operations of animal experiments are in compliance with the provisions of “Guidelines for the Management and Use of Laboratory Animals” of China.
During the experiment, SD rats were randomly divided into 4 groups: blank control group, pulmonary hypertension model group, Selexipag (1 mg/kg) treatment group and compound 1 (100 mg/kg) group with 6 rats in each group, and the concentration in brackets represents the administration concentration of the compound, in which Selexipag is a new oral long-acting prostacyclin receptor agonist discovered and synthesized by Japan New Drug Co., Ltd. On the first day of the experiment, normal saline was injected subcutaneously into the back of neck of rats in the blank control group, and monocrotaline (Chengdu Purifa Biotechnology Co., Ltd.) solution was injected in the rats in other groups at a dosage of 60 mg/kg. Both the positive drug, Selexipag and Compound 1 were administered by gavage. Selexipag and […] were dissolved in 0.5% CMC-Na solution. The rats were continuously administered for 21 days with a volume of […]. The rats in the control and model groups were given the corresponding volume of CMC-Na solution by gavage. Specific groupings can be found in Table 7.
After the administration, the pulmonary vascular hemodynamics and RVHI was determined according to the same experiment method as that in Example 1.

[2] = system: spontaneously hypertensive rats (SHR); test: Antihypertensive activity test: blood pressure and heart rate of spontaneously hypertensive rats (SHR); format: in vivo, rat; conditions: 200 mg/kg
Summary of the method: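 Spontaneously hypertensive rats received compound at 200 mg/kg. SBP and heart rate were measured before and after dosing. A drop in SBP of ≥20 mmHg from baseline counted as effective, and heart-rate changes were tested by paired t-test (P<0.05).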

[3] = system: hypoxic pulmonary hypertension model rats; test: Hypoxic pulmonary hypertension model rats, oral (gavage) treatment for 28 days; format: in vivo, SD rats; conditions: hypoxic PAH rats, 200 mg/kg, po
Protocol: An animal model of pulmonary hypertension in SD rats was established in a hypoxic and low-pressure environment, and compound 1 was administered by gavage at the same time for treatment. The rat pulmonary artery hemodynamics and right heart hypertrophy index RVHI were measured to determine whether compound 1 has effects of improving hypoxic pulmonary hypertension.
as §1
The hypoxic PAH model was established by placing SD male rats in a fully-automatically regulated low-pressure hypoxic chamber (atmospheric pressure of about 50 kPa, oxygen concentration of 10%) for 8 hours a day for 28 days. The rats in the blank control group were kept in a normoxic environment.
The experimental rats of hypoxic PAH model were divided into 8 groups, namely blank control group, model group, Sidenafil (25 mg/kg) group, compound 1 (10 mg/kg) group, compound 1 (25 mg/kg) group, compound 1 (50 mg/kg) group, compound 1 (100 mg/kg) group, and compound 1 (200 mg/kg) group. The concentration in the parentheses of the group name represents the administration concentration of the compound or drug. In hypoxia-induced PAH experiments, Sidenafil is often used as a positive drug, which can reduce the pulmonary artery pressure in rats and reduce the right ventricular hypertrophy and vascular remodeling. In this experiment, 25 mg/kg of Sidenafil was used as the positive drug. Both the positive drugs Sidenafil and Compound 1 were dissolved in physiological saline and formulated into solutions of different concentrations according to different administration concentrations. The rats were continuously administered for 28 days with an administration volume of 5 ml/kg. Rats in the control and model groups were given the corresponding volume of physiological saline solution via gavage. The specific grouping can be found in Table 5.
After the administration was completed, the POWERLAB biological information acquisition and treatment system was started, and the right cardiac catheter filled with 0.2% heparin sodium (Beijing Solo Technology Co. Ltd.) in normal saline was connected to the pressure transducer and then zero-calibrationed for use. After 20% urethane (Shanghai Yuanye Biotechnology Co., Ltd.) solution was injected into the abdominal cavity of the rats for anesthesia, the right neck hair was shaved and the right jugular vein was isolated and exposed. […] After the typical right ventricular waveform appeared and stabilized for a while, the waveform was recorded, and then the pressure value was read by Powerlab biological information acquisition and processing system (ADInstruments).
After the pressure was measured, the catheter was taken out, and the rat was dissected immediately to take out the heart and lung tissues. The right ventricle (RV) and the left ventricle and interventricular septum (LV+S) were separated and weighed, and the right heart hypertrophy index RVHI=RV/(LV+S) was calculated. The lung lobe tissue from the right lower part of the lung was separated, soaked in 4% paraformaldehyde (Sigma) for about 1 week to prepare a paraffin section with a thickness of 3 μm, and then conducted to hematoxylin-eosin staining (Wuhan Guge Biotechnology Co., Ltd.). […]

[4] = system: monocrotaline-induced pulmonary hypertension model rats (MCT-PAH); test: Monocrotaline-induced pulmonary hypertension model rats, aerosol inhalation treatment; format: in vivo, SD rats; conditions: 30 mg/kg, inh, 28 days
Protocol: A pulmonary hypertension animal model of SD rats was established by subcutaneous injection of monocrotaline (MCT). The compound 1 was administered by aerosol inhalation for treatment. The pulmonary artery hemodynamics and right heart hypertrophy index RVHI of rats were tested to determine whether compound 1 administered by aerosol inhalation has effects of improving monocrotaline-induced pulmonary hypertension.
as §1
In the second experiment, the rats were divided into 5 groups, namely the control group, model group, positive control Tyvaso (1.62 μg/kg) group, compound 1 (10 mg/kg) group and compound 1 (30 mg/kg) group. On the first day of the experiment, normal saline was injected subcutaneously into the back of the neck of the rats in the blank control group, and monocrotaline (Chengdu Purifa Biotechnology Co., Ltd.) solution was injected in the other groups at a dosage of 60 mg/kg. Compound 1 and Tyvaso were administered by aerosol inhalation, that is, the compound was firstly dissolved in physiological saline, and then the solution was prepared into an aerosol with a nebulizer to be inhaled into the mouth and nose of rats. The rats in the control group and the model group only inhaled an aerosol made of physiological saline. The rats were continuously administered for 28 days, and the concentration in the parentheses of the group name represents the administered concentration of the compound. Specific groupings can be found in Table 9. After the administration, the pulmonary vascular hemodynamics and RVHI were determined in the same way as the experiment method in Example 1.

CCc1cccc(C(COC(C)=O)OC(C)=O)c1 (stereo not drawn) [Compound 30]
2 × MT/ED [1]: 0.31 ± 0.021 | RVHI [1]: 0.245 ± 0.032 | RVSP [1]: 44.38 ± 2.89 mmHg | mPAP [1]: 16.21 ± 1.29 mmHg | SBP Difference before and after administration, 1 h ([2]; 1 h): 4 mmHg | SHR blood pressure (SBP), time after administration 1 h ([2]; 1 h, n = 8): 189 ± 7.54 mmHg | SBP Difference before and after administration, 2 h ([2]; 2 h): 5 mmHg | SHR blood pressure (SBP), time after administration 2 h ([2]; 2 h, n = 8): 188 ± 3.69 mmHg | SBP Difference before and after administration, 3 h ([2]; 3 h): 8 mmHg | SHR blood pressure (SBP), time after administration 3 h ([2]; 3 h, n = 8): 185 ± 10.11 mmHg | SBP Difference before and after administration, 4 h ([2]; 4 h): 20 mmHg | SHR blood pressure (SBP), time after administration 4 h ([2]; 4 h, n = 8): 183 ± 9.66 mmHg | SBP Difference before and after administration, 5 h ([2]; 5 h): 5 mmHg | SHR blood pressure (SBP), time after administration 5 h ([2]; 5 h, n = 8): 188 ± 14.9 mmHg | SBP Difference before and after administration, 6 h ([2]; 6 h): 5 mmHg | SHR blood pressure (SBP), time after administration 6 h ([2]; 6 h, n = 8): 188 ± 8.64 mmHg | 2 × MT/ED [3]: 0.287 ± 0.025 | RVHI [3]: 0.303 ± 0.0632 | RVSP [3]: 62.14 ± 3.35 mmHg | mPAP [3]: 16.03 ± 5.35 mmHg | 2 × MT/ED [4]: 0.402 ± 0.034 | RVHI [4]: 0.273 ± 0.043 | RVSP [4]: 46.04 ± 3.27 mmHg | mPAP [4]: 16.00 ± 3.44 mmHg
